Measurements reported in patent publication US20080109040A1, “METHOD OF TREATING ARRHYTHMIAS” (priority 2002, published 2008).
pIC50: −log10 of the molar value.

What was measured:
epicardial preparations = assay: Action potential studies in isolated canine ventricular epicardial tissues; set-up: Amplitude / Overshoot: unit not given beside the values; settings: for Amplitude / Overshoot / RMP: epicardial, BCL = 500 msec
Method: The composition of the Tyrode's solution was (in mM): […] Action potential recordings: Transmembrane potentials were recorded using standard glass microelectrodes filled with 2.7 M KCl (10 to 20 MΩ DC resistance) connected to a high input-impedance amplification system (World Precision Instruments, Sarasota, Fla., USA). […] Data recorded at BCLs of 500 and 2000 msec are presented.

[1] = test system: arterially perfused canine left ventricular wedge preparation; assay: Action potential and ECG studies in arterially-perfused canine left ventricular wedge preparations; set-up: APD90 ± SE, M region / TDR / APD50 ± SE, M region / QTend: unit not given beside the values; settings: for APD50 ± SE, Epicardium / APD50 ± SE, M region / APD90 ± SE, Epicardium / APD90 ± SE, M region / QTend / TDR / Tpeak-Tend: BCL = 2000; for Ranolazine-induced Torsade de Pointes, Spontaneous / Ranolazine-induced Torsade de Pointes, Stimulation-induced: ranolazine 1-100 μM
Method: Transmural left ventricular wedges with dimensions of approximately 12 mm×35 mm×12 mm were dissected from the mid-to-basal anterior region of the left ventricular wall and a diagonal branch of the left anterior descending coronary artery was cannulated to deliver the perfusate (Tyrode's solution). The composition of the Tyrode's solution was (in mM): […] A separate set of experiments were performed using Tyrode's solution containing 2 mM KCl. Transmembrane action potentials were recorded from epicardial (EPI) and Subendocardial regions (M) using floating microelectrodes. A transmural pseudo-electrocardiogram (ECG) was recorded using two K-Agar electrodes (1.1 mm, i.d.) placed at approx. 1 cm. from the epicardial (+) and endocardial (−) surfaces of the preparation and along the same axis as the transmembrane recordings. […] A constant flow rate was set before ischemia to reach a perfusion pressure of 40-50 mmHg. The temperature was maintained at 37±0.5° C. by heating the perfusate and a contiguous water-chamber that surrounded the tissue-chamber with the same heater/circulating bath. The top-uncovered part of the tissue-chamber was covered in each experiment to 75% of its surface with plastic sheets to further prevent heat loss; the remainder 25% was kept uncovered to position and maneuver the ECG electrodes and the floating microelectrodes. The preparations were fully immersed in the extracellular solution throughout the course of the experiment. The QT interval was defined as the time interval between the initial deflection of the QRS complex and the point at which a tangent drawn to the steepest portion of the terminal part of the T wave crossed the isoelectric line. Experimental Series 1: […] [K^+]o=4 mM. a. Steady-state stimulation: […] b. Programmed electrical stimulation (PES): Premature stimulation was applied to the epicardial surface before and after each concentration of drug in an attempt to induce arrhythmias. Single pulses (S2) were delivered once after every fifth or tenth basic beat (S1) at cycle lengths of 2000 msec. […] Experimental Series 2: […] [K^+]o=2 mM.

[2] = biological target: T1, sodium-calcium exchange current (INa-Ca) (Canis lupus familiaris, UniProt P23685); assay: Sodium-calcium exchange current voltage clamp in isolated canine left ventricular myocytes; assay type: cell-based; settings: read-out: IC50 for inhibition of INa-Ca
T1 construct: Single myocytes were obtained by enzymatic dissociation from a wedge-shaped section of the ventricular free wall; endogenous in cells; host or cells: isolated canine left ventricular myocytes

[3] = epicardium, low [K+]o, BCL = 2000 msec

COc1ccccc1OCC(O)CN1CCN(CC(=O)Nc2c(C)cccc2C)CC1 (racemic) [ranolazine, N-(2,6-dimethylphenyl)-4-[2-hydroxy-3-(2-methoxyphenoxy)propyl]-1-piperazineacetamide]
Effect on APD (epicardial preparations; epicardial tissues, BCL 500 msec): concentration-dependent prolongation
Amplitude (epicardial preparations; ranolazine 1.0 μM): 93 ± 5
Overshoot (epicardial preparations; ranolazine 1.0 μM): 10 ± 4
RMP (epicardial preparations; ranolazine 1.0 μM): −84 ± 4
Amplitude (epicardial preparations; ranolazine 5.0 μM): 101 ± 2
Overshoot (epicardial preparations; ranolazine 5.0 μM): 12 ± 3
RMP (epicardial preparations; ranolazine 5.0 μM): −89 ± 1
Amplitude (epicardial preparations; ranolazine 10.0 μM): 94 ± 5
Overshoot (epicardial preparations; ranolazine 10.0 μM): 8 ± 4
RMP (epicardial preparations; ranolazine 10.0 μM): −88 ± 2
Amplitude (epicardial preparations; ranolazine 50.0 μM): 86 ± 12
Overshoot (epicardial preparations; ranolazine 50.0 μM): 0 ± 11
RMP (epicardial preparations; ranolazine 50.0 μM): −86 ± 1
Amplitude (epicardial preparations; ranolazine 100.0 μM (n=2)): 93 ± 3
Overshoot (epicardial preparations; ranolazine 100.0 μM (n=2)): 8 ± 4
RMP (epicardial preparations; ranolazine 100.0 μM (n=2)): −85 ± 3
Effect on APD90 (epicardial preparations; epicardium, low [K+]o, BCL 500 msec): prominent concentration-dependent prolongation
Effect on APD50 (epicardial preparations; [3]): little change
Effect on APD90 (epicardial preparations; [3]): concentration-dependent prolongation
Effect on APD in two of four epicardial preparations (epicardial preparations; ranolazine 100.00 μM, BCL 500 msec): excessive APD prolongation
APD50 ± SE, Epicardium ([1]; 1 μM, 2 mM [KCl]0): 173 ± 2
APD50 ± SE, M region ([1]; 1 μM, 2 mM [KCl]0): 210.7 ± 13.53
APD90 ± SE, Epicardium ([1]; 1 μM, 2 mM [KCl]0): 232 ± 5.508
APD90 ± SE, M region ([1]; 1 μM, 2 mM [KCl]0): 280.3 ± 12.72
QTend ([1]; 1 μM, 2 mM [KCl]0): 311 ± 9.5
TDR ([1]; 1 μM, 2 mM [KCl]0): 28.33 ± 11.46
Tpeak-Tend ([1]; 1 μM, 2 mM [KCl]0): 35 ± 4.70
APD50 ± SE, Epicardium ([1]; 1 μM, 4 mM [KCl]0): 176.3 ± 12.25
APD50 ± SE, M region ([1]; 1 μM, 4 mM [KCl]0): 203.3 ± 9.621
APD90 ± SE, Epicardium ([1]; 1 μM, 4 mM [KCl]0): 213.8 ± 13.28
APD90 ± SE, M region ([1]; 1 μM, 4 mM [KCl]0): 254.3 ± 9.15
QTend ([1]; 1 μM, 4 mM [KCl]0): 263.5 ± 10.56
TDR ([1]; 1 μM, 4 mM [KCl]0): 26.75 ± 8.045
Tpeak-Tend ([1]; 1 μM, 4 mM [KCl]0): 34.5 ± 3.202
APD50 ± SE, Epicardium ([1]; 5 μM, 2 mM [KCl]0): 183.5 ± 1.5
APD50 ± SE, M region ([1]; 5 μM, 2 mM [KCl]0): 205.7 ± 7.881
APD90 ± SE, Epicardium ([1]; 5 μM, 2 mM [KCl]0): 252.5 ± 10.5
APD90 ± SE, M region ([1]; 5 μM, 2 mM [KCl]0): 289.7 ± 2.848
QTend ([1]; 5 μM, 2 mM [KCl]0): 319 ± 4.58
TDR ([1]; 5 μM, 2 mM [KCl]0): 15 ± 7
Tpeak-Tend ([1]; 5 μM, 2 mM [KCl]0): 33 ± 1.33
APD50 ± SE, Epicardium ([1]; 5 μM, 4 mM [KCl]0): 176.5 ± 11.85
APD50 ± SE, M region ([1]; 5 μM, 4 mM [KCl]0): 207.5 ± 8.627
APD90 ± SE, Epicardium ([1]; 5 μM, 4 mM [KCl]0): 219 ± 12.12
APD90 ± SE, M region ([1]; 5 μM, 4 mM [KCl]0): 258.3 ± 11.08
QTend ([1]; 5 μM, 4 mM [KCl]0): 274.5 ± 13.73
TDR ([1]; 5 μM, 4 mM [KCl]0): 36 ± 2.449
Tpeak-Tend ([1]; 5 μM, 4 mM [KCl]0): 37.75 ± 4.09
APD50 ± SE, Epicardium ([1]; 10 μM, 2 mM [KCl]0): 190 ± 2
APD50 ± SE, M region ([1]; 10 μM, 2 mM [KCl]0): 208.3 ± 3.48
APD90 ± SE, Epicardium ([1]; 10 μM, 2 mM [KCl]0): 265.5 ± 16.5
APD90 ± SE, M region ([1]; 10 μM, 2 mM [KCl]0): 305.3 ± 4.978
QTend ([1]; 10 μM, 2 mM [KCl]0): 329 ± 2.33
TDR ([1]; 10 μM, 2 mM [KCl]0): 23.5 ± 1.5
Tpeak-Tend ([1]; 10 μM, 2 mM [KCl]0): 36 ± 4.09
APD50 ± SE, Epicardium ([1]; 10 μM, 4 mM [KCl]0): 170.5 ± 12.03
APD50 ± SE, M region ([1]; 10 μM, 4 mM [KCl]0): 199 ± 9.083
APD90 ± SE, Epicardium ([1]; 10 μM, 4 mM [KCl]0): 216.5 ± 13.41
APD90 ± SE, M region ([1]; 10 μM, 4 mM [KCl]0): 260.3 ± 12.66
QTend ([1]; 10 μM, 4 mM [KCl]0): 277.8 ± 14.99
TDR ([1]; 10 μM, 4 mM [KCl]0): 30.75 ± 10.46
Tpeak-Tend ([1]; 10 μM, 4 mM [KCl]0): 39.25 ± 5.54
APD50 ± SE, Epicardium ([1]; 50 μM, 2 mM [KCl]0): 179 ± 1
APD50 ± SE, M region ([1]; 50 μM, 2 mM [KCl]0): 214.3 ± 6.333
APD90 ± SE, Epicardium ([1]; 50 μM, 2 mM [KCl]0): 276.5 ± 18.5
APD90 ± SE, M region ([1]; 50 μM, 2 mM [KCl]0): 325.5 ± 5.5
QTend ([1]; 50 μM, 2 mM [KCl]0): 343 ± 2.84
TDR ([1]; 50 μM, 2 mM [KCl]0): 35.5 ± 3.5
Tpeak-Tend ([1]; 50 μM, 2 mM [KCl]0): 41 ± 6.35
APD50 ± SE, Epicardium ([1]; 50 μM, 4 mM [KCl]0): 159.5 ± 12.82
APD50 ± SE, M region ([1]; 50 μM, 4 mM [KCl]0): 187.8 ± 11.21
APD90 ± SE, Epicardium ([1]; 50 μM, 4 mM [KCl]0): 218 ± 15.91
APD90 ± SE, M region ([1]; 50 μM, 4 mM [KCl]0): 257.5 ± 15.47
QTend ([1]; 50 μM, 4 mM [KCl]0): 279.3 ± 17.21
TDR ([1]; 50 μM, 4 mM [KCl]0): 32.5 ± 6.278
Tpeak-Tend ([1]; 50 μM, 4 mM [KCl]0): 41.25 ± 8.37
APD50 ± SE, Epicardium ([1]; 100 μM, 2 mM [KCl]0): 167.5 ± 0.5
APD50 ± SE, M region ([1]; 100 μM, 2 mM [KCl]0): 187.7 ± 4.978
APD90 ± SE, Epicardium ([1]; 100 μM, 2 mM [KCl]0): 293.5 ± 21.5
APD90 ± SE, M region ([1]; 100 μM, 2 mM [KCl]0): 345 ± 14.36
QTend ([1]; 100 μM, 2 mM [KCl]0): 376 ± 4.48
TDR ([1]; 100 μM, 2 mM [KCl]0): 35 ± 11
Tpeak-Tend ([1]; 100 μM, 2 mM [KCl]0): 55 ± 1.00
APD50 ± SE, Epicardium ([1]; 100 μM, 4 mM [KCl]0): 152.5 ± 14.44
APD50 ± SE, M region ([1]; 100 μM, 4 mM [KCl]0): 169 ± 10.5
APD90 ± SE, Epicardium ([1]; 100 μM, 4 mM [KCl]0): 220.5 ± 18.26
APD90 ± SE, M region ([1]; 100 μM, 4 mM [KCl]0): 247.8 ± 15.32
QTend ([1]; 100 μM, 4 mM [KCl]0): 284.5 ± 14.39
TDR ([1]; 100 μM, 4 mM [KCl]0): 23.75 ± 2.689
Tpeak-Tend ([1]; 100 μM, 4 mM [KCl]0): 40.5 ± 4.94
Arrhythmias in the wedge preparation ([1]; any concentration of ranolazine): No arrhythmias were observed
Ranolazine-induced Torsade de Pointes, Spontaneous ([1]; 2 mM [K+]0): 0/3
Ranolazine-induced Torsade de Pointes, Stimulation-induced ([1]; 2 mM [K+]0): 0/3
Ranolazine-induced Torsade de Pointes, Spontaneous ([1]; 4 mM [K+]0): 0/4
Ranolazine-induced Torsade de Pointes, Stimulation-induced ([1]; 4 mM [K+]0): 0/4
Early or delayed afterdepolarizations ([1]; tissue or wedge preparations, any concentration of ranolazine): Neither early nor delayed afterdepolarizations were observed
pIC50 [2]: 4.04
